Laboratory results from patent US11980598B2, “N-(2-(substituted-naphth-1-yl)ethyl) substituted amide compound, preparation and uses thereof” (BEIJING GREATWAY PHARMACEUTICAL TECHNOLOGY CO., LTD., priority 2017, dated 2024).

Columns and labels:
[1] = biological target: human MT2 receptor membrane protein (Homo sapiens (Human), UniProt P49286); assay: MT2 receptor binding test ([3H]-Melotonin competition); conditions: for MT2 binding ratio (I %): prescreening, 10^−5 M
Method: (§1) The receptors included a MT1/MT2 receptor and a 5-HT2C receptor. The test was divided into two parts: prescreening and rescreening. The results of prescreening were expressed as the percentage of binding, and the results of rescreening were expressed as the IC50 value (in M, i.e., mol/L).
(§2) (3) Tris-HCl buffer formulation: 50 mM Tris-HCl Buffer, 1 mM EDTA, 5 mM MgCl2, 0.1% NaN3, and then a certain proportion of PMSF was added to make pH 7.4.
(§3) (4) The example compound to be tested was dissolved in DMSO and formulated as a stock solution of 10^−2 M, and then diluted with distilled water to a concentration gradient of […]. The prescreening of the MT receptor binding test was performed at the concentration of 10^−5 M; the prescreening of the 5-HT2C receptor binding test was performed at the concentrations of 10^−5 and 10^−7 M.
(§4) The statistical analysis was performed using GraphPad Prism 5.0 software. The formula for receptor binding test was: inhibition (%)=[(total CPM of binding−CPM of tube with drug)/(total CPM of binding−non-specific CPM)]×100%, wherein CPM was count of a radioactive intensity.
(§5) 10 μL of receptor membrane protein MT1 or MT2 was added to all the tubes. In non-specific binding tubes, 50 μL of a corresponding unlabeled ligand Ago at a concentration of 10^4 M was added to a final concentration of 10 μM, and pre-reacted for 30 minutes. In test tubes, 30 μL of test drug (MT1: a concentration of 10^4-10^−10 M, MT2: a concentration of […]) was added, respectively; all tubes were added with 40 μL [^3H]-Melotonin, respectively. […] The filter paper was taken out and dried by baking, and then placed in a scintillation bottle. 1 mL of the scintillation liquid was added, and the radioactive intensity was measured by a liquid scintillation counter.

[2] = biological target: human MT1 receptor membrane protein (Homo sapiens (Human), UniProt P48039); assay: MT1 receptor binding test ([3H]-Melotonin competition); conditions: for MT1 binding ratio (I %): prescreening, 10^−5 M
Chain of human MT1 receptor membrane protein (P48039 whole entry): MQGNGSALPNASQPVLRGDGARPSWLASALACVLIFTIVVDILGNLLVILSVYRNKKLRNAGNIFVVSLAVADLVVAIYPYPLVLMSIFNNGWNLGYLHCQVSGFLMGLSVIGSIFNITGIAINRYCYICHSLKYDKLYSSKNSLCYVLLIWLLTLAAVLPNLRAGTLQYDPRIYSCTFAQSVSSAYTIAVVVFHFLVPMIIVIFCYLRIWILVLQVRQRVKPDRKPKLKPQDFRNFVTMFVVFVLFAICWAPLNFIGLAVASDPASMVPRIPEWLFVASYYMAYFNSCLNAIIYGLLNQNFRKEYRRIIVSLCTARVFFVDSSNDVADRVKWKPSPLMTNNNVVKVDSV
Method: as §1, §2, §3, §4, §5

Kunming mice [3] = assay: Forced mouse swimming test; format: in vivo; conditions: 10 mg/kg intraperitoneal, 3 days, last 4 of 6 min
Method: (§6) Animals: Kunming mice, male, body weight 18-22 g, SPF grade; SD rats, male, body weight 150-180 g, SPF grade. The test was carried out after acclimatization, and the animal was fasted for 12 hours before the test.
(§7) All drugs for the test were suspended and dispersed in a 1% aqueous solution of hydroxypropyl methylcellulose (HPMC), and shaken well before use. […] The doses for administration were all 10 mg/kg. For the concentration and volume for administration, see J Psychiatry Neurosci 2004; 29(2):126-133. The mice were intraperitoneally administered in a volume of 0.5 mL/20 g; and the rats were administered by i.g. in a volume of 2 mL/100 g.
Animal grouping and administration method were the same as those in the tail suspension test in mice. The mice were placed in a round glass vessel with a height of 20 cm, an inner diameter of 12 cm, a water depth of 10 cm and a water temperature of 25° C.

Kunming mice [4] = assay: Tail suspension test (TST) in mice; format: in vivo, mouse; conditions: 10 mg/kg intraperitoneal, 3 days, last 4 of 6 min
Method: as §6, §7
Mice were randomly divided into groups according to weight balance. Intraperitoneal injection was administered for three consecutive days, once a day, and the tail suspension test were performed 30 minutes after the third day. The tail suspension box was 25×25×35 cm, and a small clip was connected with a rope at the center of the top plate. An adhesive tape was stuck to the tail of the mouse 2 cm away from the tail end, and the adhesive tape was clamped with the clip to make the mouse in an inverted position. The duration of immobility was recorded during the last 4 minutes of total 6 minutes observed.

SD rats = assay: Forced rat swimming test; format: in vivo; conditions: 10 mg/kg i.g., 3 days, last 5 of 6 min
Method: as §6, §7
Rats were randomly divided into groups according to weight balance. Rats were administered by i.g. for three consecutive days, once a day. One hour after administration on the third day, the forced swimming test was performed. The rats were placed in a round glass jar with a height of 40 cm, an inner diameter of 18 cm, a water depth of 23 cm, and a water temperature of 25° C. The rats were allowed to swim for 6 minutes, and the accumulated immobility time in the last 5 minutes was recorded.

[5] = In vitro metabolism study, human liver microsomal incubation system; format: in vitro ADME
Method: TSQ Quantum liquid chromatography-mass spectrometer (LC/MS/MS) from Finnigan Inc, USA, chromatography column: TSKgel Amide-80 column (2.0 mm I.D.×100 mm, 5 μm); mobile phase: acetonitrile-water-formic acid (50:50:0.1); flow rate: 0.2 mL/min; injection volume: 5 μL; column temperature: room temperature. Ionization source is electrospray ionization (ESI) with 4.8 KV of spray voltage; capillary temperature (TEM): 300° C.; sheath gas: N2, flow rate: 10 psi; auxiliary gas: N2, flow rate: 1 psi; collision gas (CID): Ar at a pressure of 1.5 mTorr. The mass spectrometry scanning method was selective reaction monitoring (SRM) and detected by positive ion method. The internal standard was a […] solution of aconitine in acetonitrile, the minimum limit of quantification was 5 ng/mL, and the correlation coefficient was >0.99.
Approximately 10 mg of each sample to be tested was accurately weighed, dissolved in 0.1 mL of DMSO, and serially diluted with purified water to a 10 μM, 1 μM standard stock solution. An ice bath was operated and the incubation system for detection was formulated according to Table 4. NADPH was added to the incubation system to start the reaction, and then 50 μL was immediately added to 150 μL acetonitrile as a zero-time sample and a 1 μM standard curve sample. Another 1 μM standard stock solution was added to the incubation system, and then 50 μL was immediately added to 150 μL acetonitrile as a 0.1 μM standard curve sample. […] Each sample was shaken, and centrifuged at 18000 g for 10 min. The supernatant was taken for LC/MS/MS injection and determination.

[6] = incubation time 0 min, 1 μM, 1 mg/mL microsome, 37° C.

Chain of human MT2 receptor membrane protein (P49286 whole entry): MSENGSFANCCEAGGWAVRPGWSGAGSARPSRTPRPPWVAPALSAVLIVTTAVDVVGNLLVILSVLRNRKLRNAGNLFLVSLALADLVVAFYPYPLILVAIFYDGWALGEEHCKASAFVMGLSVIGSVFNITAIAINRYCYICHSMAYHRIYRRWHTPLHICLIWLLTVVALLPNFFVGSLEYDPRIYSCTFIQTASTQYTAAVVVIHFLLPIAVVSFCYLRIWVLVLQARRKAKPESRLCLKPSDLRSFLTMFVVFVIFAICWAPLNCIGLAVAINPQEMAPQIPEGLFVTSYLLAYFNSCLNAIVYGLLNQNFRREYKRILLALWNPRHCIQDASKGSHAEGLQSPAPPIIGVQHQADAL

Row | MT2 binding ratio (I %) [1] | MT1 binding ratio (I %) [2] | Concentration measured at incubation time point [5, 6] | Concentration measured at incubation time point ([5]; incubation time 5 min) | Concentration measured at incubation time point ([5]; incubation time 15 min) | melting point | IC50 ([1]; rescreening) | IC50 ([2]; rescreening) | Concentration measured at incubation time point ([5]; incubation time 30 min) | SMILES | Immobility time (Kunming mice [3]) | Immobility time (Kunming mice [4]) | Immobility time (SD rats)
1 | 78% | 84% | 1.000 ± 0.036 µM | 0.420 ± 0.079 µM | 0.039 ± 0.003 µM | – | – | – | – | COc1cc2c(CCNC(C)=O)cccc2cc1Cl [Example 2, N-(2-(6-chloro-7-methoxy-naphthalen-1-yl)ethyl)acetamide] | 81.3 ± 20.3 s | 69.4 ± 23.3 s | 61.3 ± 29.8 s
2 | 57% | 66% | 1.000 ± 0.041 µM | 0.395 ± 0.047 µM | 0.029 ± 0.002 µM | 141 to 144 °C | – | – | – | [2H]C([2H])([2H])Oc1cc2c(CCNC(C)=O)cccc2cc1F [Example 3, N-(2-(6-fluoro-7-deuteromethoxy-naphthalen-1-yl)ethyl)acetamide] | 83.3 ± 30.7 s | 77.7 ± 28.6 s | 76.1 ± 30.2 s
3 | 84% | 77% | 1.001 ± 0.017 µM | 0.601 ± 0.009 µM | 0.048 ± 0.003 µM | 140 to 144 °C | 0.67 ± 0.08 nM | 0.23 ± 0.24 nM | 0.011 ± 0.002 µM | COc1cc2c(CCNC(C)=O)cccc2cc1F [Example 4, N-(2-(6-fluoro-7-methoxy-naphthalen-1-yl)ethyl)acetamide] | 75.6 ± 26.7 s | 76.6 ± 18.4 s | 71.4 ± 40.3 s
4 | 44% | 81% | 1.000 ± 0.032 µM | 0.675 ± 0.044 µM | 0.116 ± 0.010 µM | – | – | – | – | [2H]C([2H])([2H])Oc1cc2c(CCNC(=O)CC)cccc2cc1Cl [Example 5, N-(2-(6-chloro-7-deuteromethoxy-naphthalen-1-yl)ethyl)propanamide] | 96.4 ± 14.4 s | 68.8 ± 17.3 s | 66.2 ± 35.1 s
5 | 36% | 77% | 1.000 ± 0.042 µM | 0.471 ± 0.051 µM | 0.056 ± 0.005 µM | – | – | – | – | CCC(=O)NCCc1cccc2cc(Cl)c(OC)cc12 [Example 6, N-(2-(6-chloro-7-methoxy-naphthalen-1-yl)ethyl)propanamide] | – | – | –
6 | 69% | 73% | 1.000 ± 0.035 µM | 0.505 ± 0.033 µM | 0.065 ± 0.007 µM | – | – | – | – | CCC(=O)NCCc1cccc2cc(F)c(OC)cc12 [Example 7, N-(2-(6-fluoro-7-methoxy-naphthalen-1-yl)ethyl)propanamide] | – | – | –
7 | – | – | 0.999 ± 0.103 µM | 0.235 ± 0.022 µM | 0.004 ± 0.003 µM | – | – | – | – | [2H]C([2H])([2H])Oc1ccc2cccc(CCNC(C)=O)c2c1 [d3-Ago, d3-Agomelatine, reference compound] | – | – | –
